Assays:
[1] = biological target: T1, Drosophila OR71a (Drosophila melanogaster, UniProt Q9VUK5); assay: cell-based; set-up: GCaMP6 calcium fluorescence in stable HEK293 OR+ORCO lines; peak dF normalised to 50 uM VUAA1 (=1); details: HEK293; relative to 50 uM VUAA1 response; below 0.05 set to 0; read-out: % activation
T1 construct: expressed in transfected cells
T1 sequence (Q9VUK5 1-378): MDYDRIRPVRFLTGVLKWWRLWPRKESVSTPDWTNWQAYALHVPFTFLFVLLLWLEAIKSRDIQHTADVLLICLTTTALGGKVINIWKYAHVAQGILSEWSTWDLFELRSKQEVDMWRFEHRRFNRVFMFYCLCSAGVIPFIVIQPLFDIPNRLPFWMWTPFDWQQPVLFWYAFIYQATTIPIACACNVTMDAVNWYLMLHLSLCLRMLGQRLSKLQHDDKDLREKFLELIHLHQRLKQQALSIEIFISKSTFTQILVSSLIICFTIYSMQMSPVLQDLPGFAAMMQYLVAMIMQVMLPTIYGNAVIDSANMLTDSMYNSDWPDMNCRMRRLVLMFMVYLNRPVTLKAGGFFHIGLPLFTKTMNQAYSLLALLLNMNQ
T1 sequence (Q9VNB5 1-486 partner): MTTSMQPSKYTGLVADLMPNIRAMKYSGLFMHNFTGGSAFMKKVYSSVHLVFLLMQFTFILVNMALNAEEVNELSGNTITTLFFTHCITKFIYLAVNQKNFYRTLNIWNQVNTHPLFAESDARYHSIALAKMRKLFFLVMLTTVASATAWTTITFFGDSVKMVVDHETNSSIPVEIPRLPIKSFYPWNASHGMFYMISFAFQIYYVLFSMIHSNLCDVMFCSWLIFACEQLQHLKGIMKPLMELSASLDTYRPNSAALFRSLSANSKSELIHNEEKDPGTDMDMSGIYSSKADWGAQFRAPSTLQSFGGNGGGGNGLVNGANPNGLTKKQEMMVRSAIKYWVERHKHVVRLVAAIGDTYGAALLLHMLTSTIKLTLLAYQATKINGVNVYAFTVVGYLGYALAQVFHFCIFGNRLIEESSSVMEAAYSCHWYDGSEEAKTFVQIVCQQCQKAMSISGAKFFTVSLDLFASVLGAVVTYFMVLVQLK
Description: (§1) Twelve thousand to 18,000 cells were plated into each well of a black wall, transparent bottom 384-well microplate (Greiner) 48 h or 72 h before the measurements and were simultaneously treated with 1 μg/mL doxycycline. Typically, three columns were filled with one OR expressing cell line, each row was treated with the same compound (three technical replicates for each OR), and each responsive VOC-OR combination was measured at least three times on different days. The plate has 24 columns, thus we could record responses in up to eight different cell lines in each plate. On the day of the experiment, the growth medium was replaced with 20 µL assay buffer/well (140 mM NaCl, 5 mM KCl, 2 mM CaCl2, 1 mM MgCl2, 5 mM HEPES-Na, 20 mM glucose, pH 7.3, 340 mOsm). […] Baseline fluorescence (F0) was recorded for 5 s, after which 7 µL VOC buffer (140 mM NaCl, 5 mM KCl, 2 mM CaCl2, 1 mM MgCl2, 5 mM HEPES-Na, 31 mM glucose, 0.1% DMSO, pH 7.3, 340 mOsm) was injected into each well in one row and the fluorescence response was recorded for an additional 30 s, at a rate of one read/sec. VOC solutions (VOC buffer with 4× concentration of the final measured VOC concentration, 9 µL/well was injected) were measured on the same wells in a second round with the same protocol. Each individual concentration of a specific VOC sample was recorded in three wells for the same cell line on the same microplate. The raw data were exported in xls file format, F0 and FMAX values, and the fluorescence intensity changes (∆F) were calculated in Excel (Microsoft) (Supplementary file Data summary.xlsx) using the following equation: ΔF=FMAX-F0/F0 (see also Fig. 1C). On each plate, we recorded the response of each cell line to 50 µM VUAA1. The average of these ∆F values of each cell line were used to calculate the VUAA1-normalized values for the rest of the plate, by dividing VOC response ∆F values by the average VUAA1 response ∆F value of the corresponding OR cell line. Each VOC-OR combination was measured three times as tec The recorded FMAX, F0, ∆F, VUAA1-normalized ∆F values, as well as the OR name, the name of the tested sample, and the final concentration for each well were copied into supplementary file Data summary.xlsx, that was used to summarize all the plates recorded. Here, the averages of the measurements were calculated for each receptor-VOC-concentration combination. […] Each VOC was measured at 1, 10, and 100 µM final concentration on each receptor. VUAA1-normalized response was calculated as described in methods. Values are averages of at least three biological replicates for responsive combinations and two for the non-responsive combinations. The chemical structures of the strong and medium ligands are shown for each cell line. Heat map: white-green colors correspond to the lowest-highest values measured for each cell line.

[2] = biological target: T2, Drosophila OR98a (Drosophila melanogaster, UniProt Q9VAZ3); assay: cell-based; set-up: GCaMP6 calcium fluorescence in stable HEK293 OR+ORCO lines; peak dF normalised to 50 uM VUAA1 (=1); details: HEK293; relative to 50 uM VUAA1 response; below 0.05 set to 0; read-out: % activation
T2 construct: expressed in transfected cells
T2 sequence (Q9VAZ3 1-397): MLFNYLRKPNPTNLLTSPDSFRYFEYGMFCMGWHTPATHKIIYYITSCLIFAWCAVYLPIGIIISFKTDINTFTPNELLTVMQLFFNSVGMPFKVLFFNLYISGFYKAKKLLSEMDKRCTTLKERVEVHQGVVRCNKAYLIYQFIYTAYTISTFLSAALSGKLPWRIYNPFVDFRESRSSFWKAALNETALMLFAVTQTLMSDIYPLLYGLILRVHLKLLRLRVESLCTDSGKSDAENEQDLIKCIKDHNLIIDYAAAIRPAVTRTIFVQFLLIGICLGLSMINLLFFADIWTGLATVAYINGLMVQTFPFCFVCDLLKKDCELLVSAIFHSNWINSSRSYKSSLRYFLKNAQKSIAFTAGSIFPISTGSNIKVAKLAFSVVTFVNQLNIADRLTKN
T2 sequence (Q9VNB5 1-486 partner): T1 sequence (Q9VNB5 1-486 partner)
Description: as §1

CC/C=C/CCO [e3-hexenol]
0%: activity at 1 µM [1] | activity at 10 µM [1] | activity at 100 µM [1] | activity at 1 µM [2] | activity at 10 µM [2] | activity at 100 µM [2]
